Laboratory results published in PubChem BioAssay (NCI).
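In this assay, cells in 96-well plates receive the compound at five concentrations for 48 hours. Endpoints are linearly interpolated between the surrounding concentrations. TGI denotes the concentration required for complete inhibition of growth.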

Experiments:
Test in all cases: NCI tumour cell line growth inhibition, 48 h
786-0 renal = tested on: 786-0 renal
A549 NSCLC = tested on: A549 NSCLC
ACHN renal = tested on: ACHN renal
BT-549 breast = tested on: BT-549 breast
CCRF-CEM leukemia = tested on: CCRF-CEM leukemia
COLO 205 colon = tested on: COLO 205 colon
DU-145 prostate = tested on: DU-145 prostate
EKVX NSCLC = tested on: EKVX NSCLC
HCC-2998 colon = tested on: HCC-2998 colon
HCT-116 colon = tested on: HCT-116 colon
HCT-15 colon = tested on: HCT-15 colon
HL-60(TB) leukemia = tested on: HL-60(TB) leukemia
HOP-62 NSCLC = tested on: HOP-62 NSCLC
HOP-92 NSCLC = tested on: HOP-92 NSCLC
HS 578T breast = tested on: HS 578T breast
HT29 colon = tested on: HT29 colon
IGROV1 ovarian = tested on: IGROV1 ovarian
K-562 leukemia = tested on: K-562 leukemia
KM12 colon = tested on: KM12 colon
LOX IMVI melanoma = tested on: LOX IMVI melanoma
M14 melanoma = tested on: M14 melanoma
MALME-3M melanoma = tested on: MALME-3M melanoma
MCF7 breast = tested on: MCF7 breast
MDA-MB-231 breast = tested on: MDA-MB-231 breast
MDA-MB-435 = tested on: MDA-MB-435
MDA-N = tested on: MDA-N
MOLT-4 leukemia = tested on: MOLT-4 leukemia
NCI-H226 lung = tested on: NCI-H226 lung
NCI-H23 lung = tested on: NCI-H23 lung
NCI-H460 lung = tested on: NCI-H460 lung
NCI-H522 lung = tested on: NCI-H522 lung
NCI/ADR-RES ovarian = tested on: NCI/ADR-RES ovarian
OVCAR-3 ovarian = tested on: OVCAR-3 ovarian
OVCAR-4 ovarian = tested on: OVCAR-4 ovarian
OVCAR-5 ovarian = tested on: OVCAR-5 ovarian
OVCAR-8 ovarian = tested on: OVCAR-8 ovarian
PC-3 prostate = tested on: PC-3 prostate
RPMI-8226 leukemia = tested on: RPMI-8226 leukemia
RXF 393 renal = tested on: RXF 393 renal
SF-268 CNS = tested on: SF-268 CNS
SF-539 CNS = tested on: SF-539 CNS
SK-MEL-2 melanoma = tested on: SK-MEL-2 melanoma
SK-MEL-28 melanoma = tested on: SK-MEL-28 melanoma
SK-MEL-5 melanoma = tested on: SK-MEL-5 melanoma
SK-OV-3 ovarian = tested on: SK-OV-3 ovarian
SN12C renal = tested on: SN12C renal
SNB-19 CNS = tested on: SNB-19 CNS
SNB-75 CNS = tested on: SNB-75 CNS
SR leukemia = tested on: SR leukemia
SW-620 colon = tested on: SW-620 colon
T-47D breast = tested on: T-47D breast
TK-10 renal = tested on: TK-10 renal
U251 CNS = tested on: U251 CNS
UACC-257 melanoma = tested on: UACC-257 melanoma
UACC-62 melanoma = tested on: UACC-62 melanoma
UO-31 renal = tested on: UO-31 renal
A498 renal = tested on: A498 renal
CAKI-1 renal = tested on: CAKI-1 renal
SF-295 CNS = tested on: SF-295 CNS

Measured: TGI

Cc1cc2ccccc2n1CC(=O)N1CCCC1
not listed: A498 renal | CAKI-1 renal | SF-295 CNS
> 100 µM: all other assays above

OCC(Cn1cncn1)(c1ccc(F)cc1F)n1cncn1 (configuration not stated)
not listed: EKVX NSCLC | HOP-92 NSCLC | OVCAR-4 ovarian
> 100 µM: all other assays above
